In patent US8268818B2, “Inhibitors of C-MET and uses thereof” (Vertex Pharmaceuticals Incorporated, priority 2006, dated 2012):
Like-named read-outs stand apart in the source and are kept apart here.

Biological target: PI3Kγ (Homo sapiens, UniProt P48736)
Test: PI3K inhibition assay, Protocol B (33P-ATP, glass fiber filter plate)
Assay type: biochemical
Procedure: Compounds were screened for their ability to inhibit PI3Kγ using one of the assays below.
To each well of a 96 well polystyrene plate [Corning Costar Item No. 3795], 61 μL of Reaction Mix [55 mM HEPES pH 7.5, 11 mM MgCl2, 27 mM NaCl, 5.5 mM DTT, 0.11 mg/mL BSA, 51 μM phosphatidylinositol(4,5)bisphosphate diC16 (PI(4,5)P2; Avanti Polar Lipids, Cat. No. 840046P) and 18 nM PI3Kγ] was added. Separately, ten 2.5-fold serial dilutions of compounds of the invention were prepared in 100% DMSO with the last two wells reserved for no inhibitor controls (enzyme+no compound and no enzyme control+no compound). 1 μL it of compound or DMSO alone was added by 12-channel hand pipet and incubated for 10 minutes at room temperature (25° C.). To initiate the reaction, 5 μl of ATP Mix [49 mM HEPES pH 7.5 and 1340 ^33P-ATP was added and allowed to incubate for 30 min. at 25° C. Final concentrations of the reaction were 50 mM HEPES 7.5, 10 mM MgCl2, 25 mM NaCl, 5 mM DTT, 0.1 mg/mL BSA, 46 μM PI(4,5)P2, 16.6 nM PI3Kγ, and 100 μM ATP. Final inhibitor concentrations ranged from 10 μM to 1 nM.
After incubation, 60 μL of the reaction was quenched by transferring to 504 of 20% TCA/Water in each well of a 96 well glass fiber filter plate [Millipore Cat. No. MAFBN0B50]. The plate was dried by vacuum and then washed five times in a Bio-Tek Instruments ELX-405 Auto Plate Washer with 150 μL of 5% TCA/Water. 50 μL of scintillation fluid was added to each well and the plate was read immediately on a Perkin-Elmer TopCount™ NXT liquid scintillation counter.
Inhibition data was background subtracted (no enzyme control+no inhibitor control) and fit to the competitive tight binding Ki equation described by Morrison and Stone. [J. F. Morrison and S. R. Stone, Comments Mol. Cell. Biophys. 2 (1985) 347-368].

[1] = Protocol B, 100 μM ATP, 46 μM PI(4,5)P2 diC16, 16.6 nM PI3Kγ, average if more than one result, read-out: PI3Kγ enzyme inhibition Ki

PI3Kγ, sequence (P48736 whole entry, species assumed): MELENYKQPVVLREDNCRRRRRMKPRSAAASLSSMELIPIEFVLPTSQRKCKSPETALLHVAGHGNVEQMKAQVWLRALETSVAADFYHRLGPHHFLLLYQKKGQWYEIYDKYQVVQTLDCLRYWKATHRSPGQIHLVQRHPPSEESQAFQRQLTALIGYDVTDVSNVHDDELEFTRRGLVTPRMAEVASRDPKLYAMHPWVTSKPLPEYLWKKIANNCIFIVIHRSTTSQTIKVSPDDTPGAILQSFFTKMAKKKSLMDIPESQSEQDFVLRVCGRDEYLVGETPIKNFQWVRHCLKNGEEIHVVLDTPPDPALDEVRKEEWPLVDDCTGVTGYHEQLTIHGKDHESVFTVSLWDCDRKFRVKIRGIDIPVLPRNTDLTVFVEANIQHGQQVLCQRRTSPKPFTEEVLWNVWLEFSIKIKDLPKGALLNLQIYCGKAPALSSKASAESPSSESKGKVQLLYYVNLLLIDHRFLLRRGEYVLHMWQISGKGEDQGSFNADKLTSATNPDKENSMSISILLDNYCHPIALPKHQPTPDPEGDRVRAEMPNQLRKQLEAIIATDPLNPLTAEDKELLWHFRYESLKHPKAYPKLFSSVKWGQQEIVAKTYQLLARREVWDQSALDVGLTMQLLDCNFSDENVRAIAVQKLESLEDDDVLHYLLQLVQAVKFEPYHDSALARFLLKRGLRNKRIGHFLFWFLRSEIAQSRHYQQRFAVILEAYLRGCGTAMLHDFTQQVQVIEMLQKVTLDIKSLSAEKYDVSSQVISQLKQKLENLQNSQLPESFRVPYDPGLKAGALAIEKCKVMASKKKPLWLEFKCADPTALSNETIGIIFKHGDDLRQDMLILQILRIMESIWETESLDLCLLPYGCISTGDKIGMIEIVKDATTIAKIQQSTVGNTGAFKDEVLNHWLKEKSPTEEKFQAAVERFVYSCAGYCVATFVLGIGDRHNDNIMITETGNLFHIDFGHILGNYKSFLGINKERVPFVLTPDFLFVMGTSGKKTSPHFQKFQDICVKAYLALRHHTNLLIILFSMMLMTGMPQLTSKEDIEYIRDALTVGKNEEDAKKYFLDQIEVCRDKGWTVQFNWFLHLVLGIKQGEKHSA

Row | SMILES | Ki [1] [µM] | Ki [µM]
1 | CC(=O)Nc1nc(C)c(-c2ccc(S(=O)(=O)Nc3ccccc3F)o2)s1 [Compound 69] | < 0.1 | –
2 | CC(=O)Nc1nc(C)c(-c2ccc(S(=O)(=O)Nc3c(F)cccc3F)o2)s1 [Compound 70] | 0.1 to 1 | –
3 | CC(=O)Nc1nc(C)c(-c2ccc(S(N)(=O)=O)o2)s1 [Compound 19] | < 0.1 | –
4 | COC(=O)c1nc(NC(C)=O)sc1-c1ccc(S(=O)(=O)NCc2ccccc2)o1 [Compound 72] | 0.1 to 1 | –
5 | CC(=O)Nc1nc(C)c(-c2ccc(C(=O)N3CCCC3c3cccc(Br)c3)o2)s1 (centres unmarked) [Compound 4] | 1 to 5 | –
6 | CC(=O)Nc1nc(C)c(-c2ccc(S(=O)(=O)N(C)CCO)o2)s1 [Compound 24] | < 0.1 | –
7 | CC(=O)Nc1nc(C)c(-c2ccc(S(=O)(=O)NCc3cc(Cl)cc(Cl)c3)o2)s1 [Compound 44] | 0.1 to 1 | –
8 | CC(=O)Nc1nc(C)c(-c2ccc(C(=O)N3CCCC(C)C3)o2)s1 (centres unmarked) [Compound 6] | 0.1 to 1 | –
9 | CC(=O)Nc1nc(C)c(-c2ccc(C(=O)NCCC#N)o2)s1 [Compound 9] | 0.1 to 1 | –
10 | CC(=O)Nc1nc(C)c(-c2ccc(S(=O)(=O)Nc3ccccc3)o2)s1 [Compound 33] | < 0.1 | –
11 | CC(=O)Nc1nc(C)c(-c2ccc(S(=O)(=O)NCC(F)(F)F)o2)s1 [Compound 68] | < 0.1 | –
12 | CC(=O)Nc1nc(C)c(-c2ccc(S(=O)(=O)N3CCN(C)CC3)o2)s1 [Compound 31] | < 0.1 | –
13 | CC(=O)Nc1nc(C)c(-c2ccc(S(=O)(=O)NCc3cccc(OC(F)(F)F)c3)o2)s1 [Compound 43] | 0.1 to 1 | –
14 | CC(=O)Nc1nc(C)c(-c2ccc(S(=O)(=O)NCc3cccc(I)c3)o2)s1 [Compound 39] | < 0.1 | –
15 | CC(=O)Nc1nc(C)c(-c2ccc(S(=O)(=O)NCC#N)o2)s1 [Compound 64] | < 0.1 | –
16 | CC(=O)Nc1nc(C)c(-c2ccc(C(=O)N[C@@H](CO)c3ccccc3)o2)s1 [Compound 10, (R)-5-(2-acetamido-4-methylthiazol-5-yl)-N-(2-hydroxy-1-phenylethyl)furan-2-carboxamide] | 0.1 to 1 | –
17 | CC(=O)Nc1nc(C)c(-c2ccc(S(=O)(=O)NC(C#N)c3ccccc3)o2)s1 (centres unmarked) [Compound 63] | < 0.1 | –
18 | CC(=O)Nc1nc(C)c(-c2ccc(C(=O)N3CCN(C)CC3)o2)s1 [Compound 7] | 1 to 5 | –
19 | CC(=O)Nc1nc(C)c(-c2ccc(S(=O)(=O)N[C@@H](CO)c3ccccc3)o2)s1 [Compound 53] | < 0.1 | –
20 | CC(=O)Nc1nc(C)c(-c2ccc(C(=O)N3CCCCC3)o2)s1 [Compound 11] | 0.1 to 1 | –
21 | CC(=O)NCCNS(=O)(=O)c1ccc(-c2sc(NC(C)=O)nc2C)o1 [Compound 27] | < 0.1 | –
22 | CC(=O)Nc1nc(C)c(-c2ccc(S(=O)(=O)NCCC#N)o2)s1 [Compound 26] | < 0.1 | –
23 | CC(=O)Nc1nc(C)c(-c2ccc(C(=O)N3CCC(O)C3)o2)s1 (centres unmarked) [Compound 14] | 0.1 to 1 | –
24 | CC(=O)Nc1nc(C)c(-c2ccc(C(=O)NCc3cc(Cl)cc(Cl)c3)o2)s1 [Compound 3] | 1 to 5 | –

Row | SMILES | Ki [1] [µM] | Ki [µM]
25 | CC(=O)Nc1nc(C)c(-c2ccc(S(=O)(=O)N[C@@H](C)c3ccccc3)o2)s1 [Compound 49] | < 0.1 | –
26 | COc1ccccc1CNS(=O)(=O)c1ccc(-c2sc(NC(C)=O)nc2C)o1 [Compound 58] | < 0.1 | –
27 | CC(=O)Nc1nc(C)c(-c2ccc(S(=O)(=O)NCc3ccccc3)o2)s1 [Compound 34] | < 0.1 | –
28 | CC(=O)Nc1nc(C)c(-c2ccc(S(=O)(=O)Nc3ccccc3C)o2)s1 [Compound 65] | < 0.1 | –
29 | CC(=O)Nc1nc(C)c(-c2ccc(S(=O)(=O)N[C@H]3CCc4ccccc43)o2)s1 [Compound 56] | < 0.1 | –
30 | CC(=O)Nc1nc(C)c(-c2ccc(S(=O)(=O)NCCF)o2)s1 [Compound 59] | < 0.1 | –
31 | CC(=O)Nc1nc(C)c(-c2ccc(S(=O)(=O)NC3CCCC3)o2)s1 [Compound 29] | < 0.1 | –
32 | CC(=O)Nc1nc(C)c(-c2ccc(C(=O)NC3(CO)CCCC3)o2)s1 [Compound 12] | 0.1 to 1 | –
33 | CC(=O)Nc1nc(C)c(-c2ccc(S(=O)(=O)N[C@@H]3CCc4ccccc43)o2)s1 [Compound 57] | < 0.1 | –
34 | CC(=O)Nc1nc(C)c(-c2ccc(S(=O)(=O)N(C)C)o2)s1 [Compound 21] | < 0.1 | –
35 | CC(=O)Nc1nc(C)c(-c2ccc(C(=O)N3CCN(Cc4ccccc4)CC3)o2)s1 [Compound 8] | 0.1 to 1 | –
36 | CC(=O)Nc1nc(C)c(-c2ccc(C(=O)N3CCSCC3)o2)s1 [Compound 5] | 0.1 to 1 | –
37 | CC(=O)Nc1nc(C)c(-c2ccc(S(=O)(=O)NCc3cccc([N+](=O)[O-])c3)o2)s1 [Compound 40] | < 0.1 | –
38 | CC(=O)Nc1nc(C)c(-c2ccc(C(=O)N3CCCC(c4ccc(F)cc4)C3)o2)s1 (centres unmarked) [Compound 13] | 0.1 to 1 | –
39 | COC(=O)C(NS(=O)(=O)c1ccc(-c2sc(NC(C)=O)nc2C)o1)c1ccccc1 (centres unmarked) [Compound 62] | < 0.1 | –
40 | CC(=O)Nc1nc(C)c(-c2ccc(S(=O)(=O)N[C@H](C)c3ccccc3)o2)s1 [Compound 51] | < 0.1 | –
41 | CC(=O)Nc1nc(C)c(-c2ccc(C(=O)NCc3c(Cl)cccc3Cl)o2)s1 [Compound 18] | 0.1 to 1 | –
42 | CC(=O)Nc1nc(C)c(-c2ccc(C(=O)N3CCC(N4CCCC4)CC3)o2)s1 [Compound 15] | 1 to 5 | –
43 | COC(=O)c1nc(NC(C)=O)sc1-c1ccc(S(=O)(=O)N(C)Cc2ccccc2)o1 [Compound 71] | 1 to 5 | –
44 | CC[C@@H](NS(=O)(=O)c1ccc(-c2sc(NC(C)=O)nc2C)o1)c1ccccc1 [Compound 66] | < 0.1 | –
45 | CC(=O)Nc1nc(C)c(-c2ccc(S(=O)(=O)N3CC(C)OC(C)C3)o2)s1 (centres unmarked) [Compound 32] | < 0.1 | –
46 | CC[C@H](NS(=O)(=O)c1ccc(-c2sc(NC(C)=O)nc2C)o1)c1ccccc1 [Compound 50] | < 0.1 | –
47 | CC(=O)Nc1nc(C)c(-c2ccc(S(=O)(=O)N[C@@H]3c4ccccc4C[C@@H]3O)o2)s1 [Compound 73] | < 0.1 | –
48 | CC(=O)Nc1nc(C)c(-c2ccc(S(=O)(=O)NCc3ccccc3C)o2)s1 [Compound 67] | < 0.1 | –

Row | SMILES | Ki [1] [µM] | Ki [µM]
49 | CC(=O)Nc1nc(C)c(-c2ccc(S(=O)(=O)NCC(C)C)o2)s1 [Compound 25] | < 0.1 | –
50 | CC(=O)Nc1nc(C)c(-c2ccc(C(=O)N3CCCC(O)C3)o2)s1 (centres unmarked) [Compound 17] | 0.1 to 1 | –
51 | CNS(=O)(=O)c1ccc(-c2sc(NC(C)=O)nc2C)o1 [Compound 20] | < 0.1 | –
52 | CC(=O)Nc1nc(C)c(-c2ccc(S(=O)(=O)NC(C)(C)c3ccccc3)o2)s1 [Compound 54] | < 0.1 | –
53 | CC(=O)Nc1nc(C)c(-c2ccc(S(=O)(=O)N(C)Cc3ccccc3)o2)s1 [Compound 48] | < 0.1 | –
54 | COCCNS(=O)(=O)c1ccc(-c2sc(NC(C)=O)nc2C)o1 [Compound 23] | < 0.1 | –
55 | CC(=O)Nc1nc(C)c(-c2ccc(S(=O)(=O)NCc3ccccc3Cl)o2)s1 [Compound 55] | < 0.1 | –
56 | CC(=O)Nc1nc(C)c(-c2ccc(S(=O)(=O)NCc3cc(F)cc(F)c3)o2)s1 [Compound 46] | < 0.1 | –
57 | CC(=O)Nc1nc(C)c(-c2ccc(S(=O)(=O)N3CCN(Cc4ccccc4)CC3)o2)s1 [Compound 35] | < 0.1 | –
58 | CC(=O)Nc1nc(C)c(-c2ccc(S(=O)(=O)NCc3cccc(F)c3)o2)s1 [Compound 36] | < 0.1 | –
59 | CC(=O)Nc1nc(C)c(-c2ccc(S(=O)(=O)N(C)CC(F)(F)F)o2)s1 [Compound 61] | < 0.1 | –
60 | CC(=O)Nc1nc(C)c(-c2ccc(S(=O)(=O)NCc3cccc(NS(C)(=O)=O)c3)o2)s1 [Compound 47] | < 0.1 | –
61 | CC(=O)Nc1nc(C)c(-c2ccc(S(=O)(=O)NC3CC3)o2)s1 [Compound 28] | < 0.1 | –
62 | CC(=O)Nc1nc(C)c(-c2ccc(S(=O)(=O)NCc3cccc(Br)c3)o2)s1 [Compound 38] | < 0.1 | –
63 | COc1cc(CNS(=O)(=O)c2ccc(-c3sc(NC(C)=O)nc3C)o2)cc(OC)c1 [Compound 45] | 0.1 to 1 | –
64 | CC(=O)Nc1nc(C)c(-c2ccc(S(=O)(=O)N[C@H]3c4ccccc4C[C@H]3O)o2)s1 [Compound 74] | < 0.1 | –
65 | CC(=O)Nc1nc(C)c(-c2ccc(S(=O)(=O)N3CCCCC3)o2)s1 [Compound 30] | < 0.1 | –
66 | CC(=O)Nc1nc(C)c(-c2ccc(C(=O)N3CCC(C#N)(c4ccccc4)CC3)o2)s1 [Compound 16] | – | 0.1 to 1
67 | CC(=O)Nc1nc(C)c(-c2ccc(S(=O)(=O)NCc3cccc(Cl)c3)o2)s1 [Compound 37] | < 0.1 | –
68 | CC(=O)Nc1nc(C)c(-c2ccc(S(=O)(=O)NCc3cccc(O)c3)o2)s1 [Compound 41] | < 0.1 | –
69 | CC(=O)Nc1nc(C)c(-c2ccc(S(=O)(=O)N[C@H](CCO)c3ccccc3)o2)s1 [Compound 52] | < 0.1 | –
70 | CC(=O)Nc1nc(C)c(-c2ccc(S(=O)(=O)NCc3cccc(C(F)(F)F)c3)o2)s1 [Compound 42] | < 0.1 | –
71 | CC(=O)Nc1nc(C)c(-c2ccc(S(=O)(=O)NCC(F)F)o2)s1 [Compound 60] | < 0.1 | –
